Results reported in PubChem BioAssay AID248 (DTP/NCI, 2004).
Several values for one entry are separate records, joined by “and”; a condition that tells them apart may be missing. Equal values may be shown once. Toxic doses and inconclusive results are not listed.

Tested on: L1210 leukemia ip in BDF1 mice, survival T/C
Assay: NCI In Vivo Anticancer Drug Screen. Data for tumor model L1210 Leukemia (intraperitoneal) in B6D2F1 (BDF1) mice
Settings: endpoint: mean survival time, higher = longer survival
Method in brief: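 Read-out is survival time, reported as the treated-group measurement over the vehicle-control measurement.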

[1] = dose: 50.0 mg/kg/injection, schedule: Q01DX001 (ip), vehicle: saline
[2] = dose: 100.0 mg/kg/injection, schedule: Q01DX001 (ip), vehicle: saline
[3] = dose: 200.0 mg/kg/injection, schedule: Q01DX001 (ip), vehicle: saline

CCn1c(COc2ccc(Cl)cc2Cl)c(COC(=O)c2cccc(Cl)c2)c2ccccc21
T/C (dose: 100.0 mg/kg/injection, schedule: Q01DX009 (ip), vehicle: carboxymethylcellulose (CMC)): 98 % of control and 103 % of control | T/C (dose: 100.0 mg/kg/injection, schedule: Q04DX002 (ip), vehicle: carboxymethylcellulose (CMC)): 101 % of control and 102 % of control | T/C (dose: 200.0 mg/kg/injection, schedule: Q01DX009 (ip), vehicle: carboxymethylcellulose (CMC)): 97 % of control and 98 % of control | T/C (dose: 200.0 mg/kg/injection, schedule: Q04DX002 (ip), vehicle: carboxymethylcellulose (CMC)): 94 % of control and 98 % of control | T/C (dose: 400.0 mg/kg/injection, schedule: Q01DX009 (ip), vehicle: carboxymethylcellulose (CMC)): 87 % of control | T/C (dose: 400.0 mg/kg/injection, schedule: Q04DX002 (ip), vehicle: carboxymethylcellulose (CMC)): 95 % of control and 91 % of control

COC(=O)CN1C(=O)c2ccccc2C1=O
T/C (dose: 100.0 mg/kg/injection, schedule: Q04DX003 (ip), vehicle: saline): 95 % of control | T/C (dose: 200.0 mg/kg/injection, schedule: Q04DX003 (ip), vehicle: saline): 101 % of control | T/C (dose: 400.0 mg/kg/injection, schedule: Q04DX003 (ip), vehicle: saline): 98 % of control

NCC(=O)c1c[nH]c(=O)[nH]c1=O
T/C (dose: 25.0 mg/kg/injection, schedule: Q01DX001 (ip), vehicle: saline): 107 % of control | T/C [1]: 100 % of control | T/C [2]: 97 % of control and 102 % of control | T/C [3]: 115 % of control | T/C (dose: 400.0 mg/kg/injection, schedule: Q01DX001 (ip), vehicle: saline): 102 % of control

Cc1ccc(C(=O)C=Nc2ccc(Br)cc2)cc1
T/C (dose: 100.0 mg/kg/injection, schedule: Q01DX001 (ip), vehicle: Klucel (hydroxypropylcellulose) (HPC)): 104 % of control | T/C (dose: 200.0 mg/kg/injection, schedule: Q01DX001 (ip), vehicle: Klucel (hydroxypropylcellulose) (HPC)): 95 % of control | T/C (dose: 400.0 mg/kg/injection, schedule: Q01DX001 (ip), vehicle: Klucel (hydroxypropylcellulose) (HPC)): 112 % of control

Cc1ccc(S(=O)(=O)Cc2ccccc2)cc1
T/C (dose: 50.0 mg/kg/injection, schedule: Q01DX001 (ip), vehicle: carboxymethylcellulose (CMC)): 103 % of control | T/C (dose: 50.0 mg/kg/injection, schedule: Q01DX009 (ip), vehicle: saline): 103 % of control | T/C (dose: 100.0 mg/kg/injection, schedule: Q01DX001 (ip), vehicle: carboxymethylcellulose (CMC)): 103 % of control | T/C (dose: 100.0 mg/kg/injection, schedule: Q01DX009 (ip), vehicle: saline): 99 % of control | T/C (dose: 100.0 mg/kg/injection, schedule: Q04DX002 (ip), vehicle: Klucel (hydroxypropylcellulose) (HPC)): 100 % of control | T/C (dose: 200.0 mg/kg/injection, schedule: Q01DX001 (ip), vehicle: carboxymethylcellulose (CMC)): 103 % of control | T/C (dose: 200.0 mg/kg/injection, schedule: Q01DX009 (ip), vehicle: saline): 94 % of control | T/C (dose: 200.0 mg/kg/injection, schedule: Q04DX002 (ip), vehicle: Klucel (hydroxypropylcellulose) (HPC)): 106 % of control | T/C (dose: 400.0 mg/kg/injection, schedule: Q01DX001 (ip), vehicle: carboxymethylcellulose (CMC)): 97 % of control | T/C (dose: 400.0 mg/kg/injection, schedule: Q04DX002 (ip), vehicle: Klucel (hydroxypropylcellulose) (HPC)): 95 % of control

CNc1ccc(N=Nc2ccncc2C)cc1C
T/C (dose: 100.0 mg/kg/injection, schedule: Q04DX003 (ip), vehicle: saline with Tween-80): 102 % of control | T/C (dose: 200.0 mg/kg/injection, schedule: Q04DX003 (ip), vehicle: saline with Tween-80): 96 % of control | T/C (dose: 400.0 mg/kg/injection, schedule: Q04DX003 (ip), vehicle: saline with Tween-80): 96 % of control

CC[CH2][Sn]([CH2]CC)([CH2]CC)[O]C(=O)CN1CCC[CH]([Hg][c]2cccnc2)C1 (stereo unspecified)
T/C [1]: 98 % of control | T/C [2]: 109 % of control | T/C [3]: 104 % of control

O=NN(CCF)C(=O)NC1C2CC3CC(C2)CC1C3 (stereo unspecified)
T/C (dose: 12.5 mg/kg/injection, schedule: Q01DX001 (ip), vehicle: other): 114 % of control | T/C (dose: 25.0 mg/kg/injection, schedule: Q01DX001 (ip), vehicle: other): 123 % of control | T/C (dose: 50.0 mg/kg/injection, schedule: Q01DX001 (ip), vehicle: other): 167 % of control
